The record followed here is patent US4698336A, “3-(pyrrolidinio)methyl-3-cephem derivatives” (Eisai Co., Ltd., priority 1985, dated 1987).

In brackets after ≈: the same amount, converted by molar mass.

In series [1] the test system is Serratia marcescens ES-75. Description: Antibacterial activity (MIC), Serratia marcescens ES-75. The settings on record: ES75. The class given is cell-based.
For series [2], the system named is Pseudomonas aeruginosa EP-01. Description: Antibacterial activity (MIC), Pseudomonas aeruginosa EP-01. Conditions: EP01. The class given is cell-based.
A short description of series [3]: Acute toxicity, LD50 (mouse, intravenous injection). The settings on record: in vivo. The source says: Acute toxicity [LD50 (mouse, intravenous injection)] of the following compounds was more than 3 g/kg.
The subject of a further series is Escherichia coli NIHJ. Description: Antibacterial activity (MIC), Escherichia coli NIHJ. The series is classed as cell-based.
Series [4] relates to Citrobacter freundii EC-34. Briefly: Antibacterial activity (MIC), Citrobacter freundii EC-34. Conditions: EC34; Citrobacter freundii EC-34, β Lactamase producing bacteria. The series is classed as cell-based.
Series [5] has as its system Pseudomonas maltophilia E04004. Description: Antibacterial activity (MIC), Pseudomonas maltophilia E04004. The class given is cell-based. Conditions: Stenotrophomonas maltophilia.
Series [6] relates to Staphylococcus aureus E31106. Description: Antibacterial activity (MIC), Staphylococcus aureus E31106. The series is classed as cell-based. Conditions: Staphylococcus aureus E31106, β Lactamase producing bacteria.
Series [7] relates to Staphylococcus aureus 209-P. Briefly: Antibacterial activity (MIC), Staphylococcus aureus 209-P. The series is classed as cell-based.

In general, MIC refers to the lowest concentration found to suppress growth. What is called LD50 is the dose at which mortality reaches 50%. The low end stands for greater toxicity, the high end for lower toxicity. Consider `CO/N=C(\C(=O)N[C@@H]1C(=O)N2C(C(=O)[O-])=C(C[N@+]3(C)CCC[C@H]3CO)CS[C@H]12)c1nsc(N)n1` [Example 1-A, 7β-[2-(5-Amino-1,2,4-thiadiazol-3-yl)-(Z)-2-methoxyiminoacetamido]-3-[(2S)-hydroxymethyl-(1S)-methylpyrrolidinio]methyl-3-cephem-4-carboxylate], for which the minimal inhibitory concentration (MIC) in series [1] stood at 0.1 µg/mL (≈ 0.195 µM); in series [2], 0.8 µg/mL (≈ 1.56 µM); with Escherichia coli NIHJ, 0.025 µg/mL (≈ 0.0489 µM); in series [4] it was 0.05 µg/mL (≈ 0.0977 µM); in series [5], 6.25 µg/mL (≈ 12.2 µM); in series [6], 6.25 µg/mL (≈ 12.2 µM). This compound also had a minimal inhibitory concentration (MIC) in series [7] of 1.56 µg/mL (≈ 3.05 µM). This compound returned a 50% lethal dose (LD50) in series [3] greater than 3000 mg/kg.
On to `CO/N=C(\C(=O)N[C@@H]1C(=O)N2C(C(=O)[O-])=C(C[N@+]3(C)CCC[C@H]3CO)CS[C@H]12)c1csc(N)n1` [Example 5, 7β-[2-(2-Aminothiazol-4-yl)-(Z)-2-methoxyiminoacetoamido]-3-[(2S)-hydroxymethyl-(1S)-methylpyrrolidinio]methyl-3-cephem-4-carboxylate], for which the minimal inhibitory concentration (MIC) was 0.1 µg/mL (≈ 0.196 µM) in series [1]; 3.13 µg/mL (≈ 6.13 µM) in series [2]; 0.05 µg/mL (≈ 0.0979 µM) against Escherichia coli NIHJ; 0.05 µg/mL (≈ 0.0979 µM) in series [4]; 12.5 µg/mL (≈ 24.5 µM) in series [5]; 25 µg/mL (≈ 49 µM) in series [6]. Further, the lowest concentration to inhibit growth in series [7] (MIC) was 0.8 µg/mL (≈ 1.57 µM). The LD50 in series [3] was greater than 3000 mg/kg.
As for `CO/N=C(\C(=O)N[C@@H]1C(=O)N2C(C(=O)[O-])=C(C[N@+]3(C)CCC[C@H]3C(N)=O)CS[C@H]12)c1csc(N)n1` [Control Compound, reference compound], the MIC in series [1] came to 0.2 µg/mL (≈ 0.382 µM); in series [2] it was 6.25 µg/mL (≈ 11.9 µM); against Escherichia coli NIHJ, 0.1 µg/mL (≈ 0.191 µM); in series [4], 0.2 µg/mL (≈ 0.382 µM); in series [5], 12.5 µg/mL (≈ 23.9 µM); in series [6], 50 µg/mL (≈ 95.5 µM). In series [7], this compound returned an MIC of 1.56 µg/mL (≈ 2.98 µM).
With `CO/N=C(\C(=O)N[C@@H]1C(=O)N2C(C(=O)[O-])=C(C[N@+]3(C)CCC[C@H]3C)CS[C@H]12)c1nsc(N)n1` [Example 3, 7β-[2-(5-Amino-1,2,4-thiadiazol-3-yl)-(Z)-2-methoxyiminoacetamido]-3-[(1S,2R)-dimethylpyrrolidinio]methyl-3-cephem-4-carboxylate], the minimum inhibitory concentration (MIC) worked out at 0.2 µg/mL (≈ 0.404 µM) in series [1]; 1.56 µg/mL (≈ 3.15 µM) in series [2]; 0.2 µg/mL (≈ 0.404 µM) against Escherichia coli NIHJ; 0.2 µg/mL (≈ 0.404 µM) in series [4]; 6.25 µg/mL (≈ 12.6 µM) in series [5]; 12.5 µg/mL (≈ 25.2 µM) in series [6]. Further, in series [7], 1.56 µg/mL (≈ 3.15 µM) was the least that counted as inhibitory (MIC). This compound gave an LD50 in series [3] greater than 3000 mg/kg.
As for `CO/N=C(\C(=O)N[C@@H]1C(=O)N2C(C(=O)[O-])=C(C[N@@+]3(C)CCC[C@H]3CO)CS[C@H]12)c1nsc(N)n1` [Example 1-B, 7β-[2-(5-Amino-1,2,4-thiadiazol-3-yl)-(Z)-2-methoxyiminoacetamido]-3-[ (2S)-hydroxymethyl-(1R)-methylpyrrolidinio]methyl-3-cephem-4-carboxylate], the minimum inhibitory concentration (MIC) in series [1] is 0.1 µg/mL (≈ 0.195 µM); in series [2], 1.56 µg/mL (≈ 3.05 µM); against Escherichia coli NIHJ it was 0.1 µg/mL (≈ 0.195 µM); in series [4] it was 0.1 µg/mL (≈ 0.195 µM); in series [5], 6.25 µg/mL (≈ 12.2 µM); in series [6], 12.5 µg/mL (≈ 24.4 µM). The compound further showed an MIC in series [7] of 1.56 µg/mL (≈ 3.05 µM).
As to `CO/N=C(\C(=O)N[C@@H]1C(=O)N2C(C(=O)[O-])=C(C[N@+]3(C)CCC[C@H]3C(N)=O)CS[C@H]12)c1nsc(N)n1` [Example 2, 7β-[2-(5-Amino-1,2,4-thiadiazol-3-yl)-(Z)-2-methoxyiminoacetamido]-3-[(2S)-carbamoyl-(1S)-methylpyrrolidinio]methyl-3-cephem-4-carboxylate], the MIC was 0.1 µg/mL (≈ 0.191 µM) in series [1]; 1.56 µg/mL (≈ 2.97 µM) in series [2]; less than 0.025 µg/mL in the series on Escherichia coli NIHJ; 0.05 µg/mL (≈ 0.0953 µM) in series [4]; 3.13 µg/mL (≈ 5.97 µM) in series [5]; 12.5 µg/mL (≈ 23.8 µM) in series [6]. This compound returned a minimal inhibitory concentration (MIC) in series [7] of 1.56 µg/mL (≈ 2.97 µM). Besides, the LD50 in series [3] was greater than 3000 mg/kg.
